Data taken from patent publication US20210122730A1, “GLUCOCORTICOID RECEPTOR MODULATORS” (ORIC Pharmaceuticals, Inc., priority 2017, published 2021).

Columns and labels:
CYP2C8 = molecular target: T1, CYP2C8 (Homo sapiens, UniProt P10632); experiment: CYP Inhibition Assay (CYP2C8, human liver microsomes, paclitaxel substrate); type: in vitro ADME; conditions: pH 7.4; pooled human liver microsomes 0.1 mg/mL, probe substrate paclitaxel
T1 construct: Pooled human microsomes were obtained from Sekisui XenoTech, KS; tissue Sekisui XenoTech, KS; host or cells: pooled human liver microsomes
T1 sequence (P10632 1-490): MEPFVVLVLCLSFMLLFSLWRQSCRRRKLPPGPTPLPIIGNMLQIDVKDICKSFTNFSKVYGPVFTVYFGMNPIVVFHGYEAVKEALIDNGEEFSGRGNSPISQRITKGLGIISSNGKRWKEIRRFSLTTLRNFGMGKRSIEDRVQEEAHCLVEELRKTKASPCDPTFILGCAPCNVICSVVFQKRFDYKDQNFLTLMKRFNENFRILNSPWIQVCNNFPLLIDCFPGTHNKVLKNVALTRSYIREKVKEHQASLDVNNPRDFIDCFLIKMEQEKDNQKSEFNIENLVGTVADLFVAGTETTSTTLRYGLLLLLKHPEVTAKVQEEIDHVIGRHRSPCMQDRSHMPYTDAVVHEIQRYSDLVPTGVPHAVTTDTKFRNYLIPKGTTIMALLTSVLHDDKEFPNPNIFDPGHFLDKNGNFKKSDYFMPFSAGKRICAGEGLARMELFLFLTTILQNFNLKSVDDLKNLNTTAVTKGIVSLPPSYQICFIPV
Summary of the method: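 Pooled human liver microsomes (0.1 mg/mL) in 50 mM potassium phosphate pH 7.4 with compound, started with 1 mM NADPH, 5 min at 37° C, duplicate.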

GR = molecular target: T2, GR (Homo sapiens, UniProt P04150); experiment: In Vitro GR Luciferase Reporter Assay (antagonist mode, CHO-K1-GR-MMTV-Luc reporter cells); type: cell-based
T2 construct: expressed in transfected cells; host or cells: CHO-K1
T2 sequence (P04150 1-777): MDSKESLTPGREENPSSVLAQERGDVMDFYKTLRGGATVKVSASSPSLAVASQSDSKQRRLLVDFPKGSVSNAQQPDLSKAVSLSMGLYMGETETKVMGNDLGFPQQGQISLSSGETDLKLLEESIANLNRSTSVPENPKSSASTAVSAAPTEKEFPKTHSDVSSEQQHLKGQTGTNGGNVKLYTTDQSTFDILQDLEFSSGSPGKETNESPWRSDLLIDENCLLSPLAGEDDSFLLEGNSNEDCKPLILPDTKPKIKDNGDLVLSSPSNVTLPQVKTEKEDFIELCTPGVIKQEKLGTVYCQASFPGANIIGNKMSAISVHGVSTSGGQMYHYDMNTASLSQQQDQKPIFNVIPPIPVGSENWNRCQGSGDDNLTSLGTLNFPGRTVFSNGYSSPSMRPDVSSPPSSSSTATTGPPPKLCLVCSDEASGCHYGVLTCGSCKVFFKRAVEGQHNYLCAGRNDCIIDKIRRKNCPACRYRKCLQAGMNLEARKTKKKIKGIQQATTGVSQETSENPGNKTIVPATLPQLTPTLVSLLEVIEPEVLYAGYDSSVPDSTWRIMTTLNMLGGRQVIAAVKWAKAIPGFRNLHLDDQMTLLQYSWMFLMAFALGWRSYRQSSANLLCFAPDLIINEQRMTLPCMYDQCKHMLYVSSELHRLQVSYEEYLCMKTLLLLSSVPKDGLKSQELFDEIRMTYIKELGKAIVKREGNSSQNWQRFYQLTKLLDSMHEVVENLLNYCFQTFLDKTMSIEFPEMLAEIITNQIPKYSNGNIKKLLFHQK
Summary of the method: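 CHO-K1-GR-MMTV-Luc cells in phenol red-free DMEM with 10% CSS, stimulated with 10 nM dexamethasone (final) and treated with 8-point 1:5 compound dilutions for about 18-24 h at 37° C. Luciferase measured by OneGlo luminescence; IC50 derived for inhibition of GR activity.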

[1] = antagonist mode, 10 nM Dexamethasone
[2] = antagonist assay with 10 nM Dexamethasone, 18-24 hours

Row | Structure (SMILES) | inhibition at 5 min (CYP2C8) | IC50 (GR; [1]) | IC50 (GR; [2])
1 | Cn1cc(S(=O)(=O)C[C@H]2CCC3=Cc4c(cnn4-c4ccc(F)cc4)C[C@]3(C(=O)c3cc(C(F)(F)F)ccn3)C2)cn1 (single isomer, unassigned) [Example 118] | ≤ 25% | ≤ 100 nM | 
2 | Cn1cc(S(=O)(=O)N(C2CC2)[C@H]2CCC3=Cc4c(cnn4-c4ccc(F)cc4)C[C@]3(C(=O)c3cc(C(F)(F)F)ccn3)C2)cn1 [Example 88, N-cyclopropyl-N-((4aS,6S)-1-(4-fluorophenyl)-4a-(4-(trifluoromethyl)picolinoyl)-4,4a,5,6,7,8-hexahydro-1H-benzo[f]indazol-6-yl)-1-methyl-1H-pyrazole-4-sulfonamide] | 25 to 50% |  | ≤ 100 nM
3 | O=C(c1ncc(C(F)(F)F)s1)[C@]12Cc3cnn(-c4ccc(F)cc4)c3C=C1CC[C@H](N(C1CC1)S(=O)(=O)c1ccc(F)cc1)C2 [Example 177, N-cyclopropyl-4-fluoro-N-((4aS,6S)-1-(4-fluorophenyl)-4a-(5-(trifluoromethyl)thiazole-2-carbonyl)-4,4a,5,6,7,8-hexahydro-1H-benzo[f]indazol-6-yl)benzenesulfonamide] | ≤ 25% | ≤ 100 nM | 
4 | Cn1ccc(S(=O)(=O)N(CC2CC2)[C@H]2CCC3=Cc4c(cnn4-c4ccc(F)cc4)C[C@]3(C(=O)c3ncc(C(F)(F)F)s3)C2)n1 [Example 179, N-(cyclopropylmethyl)-N-((4aS,6S)-1-(4-fluorophenyl)-4a-(5-(trifluoromethyl)thiazole-2-carbonyl)-4,4a,5,6,7,8-hexahydro-1H-benzo[f]indazol-6-yl)-1-methyl-1H-pyrazole-3-sulfonamide] | 25 to 50% | ≤ 100 nM | 
5 | CC(C)N([C@H]1CCC2=Cc3c(cnn3-c3ccc(F)cc3)C[C@]2(C(=O)c2cc(C(F)(F)F)ccn2)C1)S(=O)(=O)c1ccn(C)n1 [Example 186, N-((4aS,6S)-1-(4-fluorophenyl)-4a-(4-(trifluoromethyl)picolinoyl)-4,4a,5,6,7,8-hexahydro-1H-benzo[f]indazol-6-yl)-N-isopropyl-1-methyl-1H-pyrazole-3-sulfonamide] | 50 to 75% | ≤ 100 nM | 
6 | O=C(c1cc(Cl)ccn1)[C@]12Cc3cnn(-c4ccc(F)cc4)c3C=C1CC[C@H](N(C1CC1)S(=O)(=O)c1ccc(F)cc1)C2 [Example 232, N-((4aS,6S)-4a-(4-chloropicolinoyl)-1-(4-fluorophenyl)-4,4a,5,6,7,8-hexahydro-1H-benzo[f]indazol-6-yl)-N-cyclopropyl-4-fluorobenzenesulfonamide] | 25 to 50% | ≤ 100 nM | 
7 | Cn1cc(S(=O)(=O)N(CC(C)(C)O)[C@H]2CCC3=Cc4c(cnn4-c4ccc(F)cc4)C[C@]3(C(=O)c3cc(F)ccn3)C2)cn1 [Example 248, N-((4aS,6S)-1-(4-fluorophenyl)-4a-(4-fluoropicolinoyl)-4,4a,5,6,7,8-hexahydro-1H-benzo[f]indazol-6-yl)-N-(2-hydroxy-2-methylpropyl)-1-methyl-1H-pyrazole-4-sulfonamide] | ≤ 25% | ≤ 100 nM | 
8 | Cn1ccc(S(=O)(=O)N(C2CC(F)(F)C2)[C@H]2CCC3=Cc4c(cnn4-c4ccc(F)cc4)C[C@]3(C(=O)c3ncc(C(F)(F)F)s3)C2)n1 [Example 270, N-(3,3-difluorocyclobutyl)-N-((4aS,6S)-1-(4-fluorophenyl)-4a-(5-(trifluoromethyl)thiazole-2-carbonyl)-4,4a,5,6,7,8-hexahydro-1H-benzo[f]indazol-6-yl)-1-methyl-1H-pyrazole-3-sulfonamide] | ≤ 25% | ≤ 100 nM | 

More lines, now with the values ahead:

Row | inhibition at 5 min (CYP2C8) | IC50 (GR; [1]) | IC50 (GR; [2]) | Structure (SMILES)
9 | 25 to 50% |  | ≤ 100 nM | CN([C@H]1CCC2=Cc3c(cnn3-c3ccc(F)cc3)C[C@]2(C(=O)c2cc(C(F)(F)F)ccn2)C1)S(=O)(=O)c1ccc(F)cc1 [Example 5, 4-Fluoro-N-((4aS,6S)-1-(4-fluorophenyl)-4a-(4-(trifluoromethyl)picolinoyl)-4,4a,5,6,7,8-hexahydro-1H-benzo[f]indazol-6-yl)-N-methylbenzenesulfonamide]
10 | 25 to 50% |  | ≤ 100 nM | CN([C@H]1CCC2=Cc3c(cnn3-c3ccc(F)cc3)C[C@]2(C(=O)c2cc(C(F)(F)F)ccn2)C1)S(=O)(=O)c1ccn(C)n1 [Example 98, N-((4aS,6S)-1-(4-fluorophenyl)-4a-(4-(trifluoromethyl)picolinoyl)-4,4a,5,6,7,8-hexahydro-1H-benzo[f]indazol-6-yl)-N,1-dimethyl-1H-pyrazole-3-sulfonamide]
11 | 25 to 50% |  | ≤ 100 nM | Cn1cc(S(=O)(=O)N(CC2CC2)[C@H]2CCC3=Cc4c(cnn4-c4ccc(F)cc4)C[C@]3(C(=O)c3cc(C(F)(F)F)ccn3)C2)cn1 [Example 103, N-(cyclopropylmethyl)-N-((4aS,6S)-1-(4-fluorophenyl)-4a-(4-(trifluoromethyl)picolinoyl)-4,4a,5,6,7,8-hexahydro-1H-benzo[f]indazol-6-yl)-1-methyl-1H-pyrazole-4-sulfonamide]
12 | 25 to 50% | ≤ 100 nM |  | Cn1ccc(S(=O)(=O)N(CC(F)(F)F)[C@H]2CCC3=Cc4c(cnn4-c4ccc(F)cc4)C[C@]3(C(=O)c3cc(C(F)(F)F)ccn3)C2)n1 [Example 111, N-((4aS,6S)-1-(4-Fluorophenyl)-4a-(4-(trifluoromethyl)picolinoyl)-4,4a,5,6,7,8-hexahydro-1H-benzo[f]indazol-6-yl)-1-methyl-N-(2,2,2-trifluoroethyl)-1H-pyrazole-3-sulfonamide]
13 | ≤ 25% | ≤ 100 nM |  | Cn1ccc(S(=O)(=O)[C@H]2CCC3=Cc4c(cnn4-c4ccc(F)cc4)C[C@]3(C(=O)c3cc(C(F)(F)F)ccn3)C2)n1 [Example 113, ((4aS,6S)-1-(4-Fluorophenyl)-6-((1-methyl-1H-pyrazol-3-yl)sulfonyl)-1,4,5,6,7,8-hexahydro-4aH-benzo[f]indazol-4a-yl)(4-(trifluoromethyl)pyridin-2-yl)methanone]
14 | 50 to 75% | ≤ 100 nM |  | Cn1ccc(S(=O)(=O)N(C2CC2)[C@H]2CCC3=Cc4c(cnn4-c4ccc(F)cc4)C[C@]3(C(=O)c3cc(C(F)(F)F)ccn3)C2)n1 [Example 138, N-cyclopropyl-N-((4aS,6S)-1-(4-fluorophenyl)-4a-(4-(trifluoromethyl)picolinoyl)-4,4a,5,6,7,8-hexahydro-1H-benzo[f]indazol-6-yl)-1-methyl-1H-pyrazole-3-sulfonamide]
15 | 25 to 50% | ≤ 100 nM |  | CC(C)N(C(=O)c1cnn(C)c1)[C@H]1CCC2=Cc3c(cnn3-c3ccc(F)cc3)C[C@]2(C(=O)c2ncc(C(F)(F)F)s2)C1 [Example 211, N-((4aS,6S)-1-(4-fluorophenyl)-4a-(5-(trifluoromethyl)thiazole-2-carbonyl)-4,4a,5,6,7,8-hexahydro-1H-benzo[f]indazol-6-yl)-N-isopropyl-1-methyl-1H-pyrazole-4-carboxamide]
16 | 25 to 50% | ≤ 100 nM |  | Cn1ccc(S(=O)(=O)N(C2CC(F)(F)C2)[C@H]2CCC3=Cc4c(cnn4-c4ccc(F)cc4)C[C@]3(C(=O)c3cc(C(F)(F)F)ccn3)C2)n1 [Example 227, N-(3,3-difluorocyclobutyl)-N-((4aS,6S)-1-(4-fluorophenyl)-4a-(4-(trifluoromethyl)picolinoyl)-4,4a,5,6,7,8-hexahydro-1H-benzo[f]indazol-6-yl)-1-methyl-1H-pyrazole-3-sulfonamide]
17 | ≤ 25% | ≤ 100 nM |  | Cn1ccc(S(=O)(=O)N([C@H]2CCC3=Cc4c(cnn4-c4ccc(F)cc4)C[C@]3(C(=O)c3ncc(C(F)(F)F)s3)C2)[C@H]2C[C@@](C)(O)C2)n1 [Example 277, N-((4aS,6S)-1-(4-fluorophenyl)-4a-(5-(trifluoromethyl)thiazole-2-carbonyl)-4,4a,5,6,7,8-hexahydro-1H-benzo[f]indazol-6-yl)-N-((1s,3R)-3-hydroxy-3-methylcyclobutyl)-1-methyl-1H-pyrazole-3-sulfonamide]
